Measurements reported in ChEMBL document CHEMBL2401728, “An unexpected Dimroth rearrangement leading to annelated thieno[3,2-d][1,2,3]triazolo[1,5-a]pyrimidines with potent antitumor activity” (Eur J Med Chem, 2013).

Tests used:
HOP-92 = assay: Cytotoxicity against human HOP92 cells assessed as cellular growth at 0.1 uM after 48 hrs by SRB assay relative to control; format: functional
NCI-H322M = assay: Cytotoxicity against human NCI-H322M cells after 48 hrs by SRB assay; format: functional
HT-29 = assay: Cytotoxicity against human HT-29 cells assessed as cellular growth at 1 uM after 48 hrs by SRB assay relative to control; format: functional
SF-268 = assay: Cytotoxicity against human SF268 cells after 48 hrs by SRB assay; format: functional; settings: SF-268, 48 h
PC-3 [1] = assay: Cytotoxicity against human PC3 cells after 48 hrs by SRB assay; format: functional; settings: PC-3, 48 h
Mus musculus = assay: Toxicity in mouse at 100 to 400 mg/kg measured for 2 weeks; format: organism-based; parameters: dose 100-400 mg/kg; settings: in vivo, 336 h
U-251 [2] = assay: Cytotoxicity against human U251 cells assessed as cellular growth at 0.1 uM after 48 hrs by SRB assay relative to control; format: functional
Hs-578T = assay: Cytotoxicity against human Hs578T cells assessed as cellular growth at 1 uM after 48 hrs by SRB assay relative to control; format: functional
OVCAR-3 = assay: Cytotoxicity against human OVCAR3 cells assessed as cellular growth at 100 uM after 48 hrs by SRB assay relative to control; format: functional
ACHN = assay: Cytotoxicity against human ACHN cells assessed as cellular growth at 100 uM after 48 hrs by SRB assay relative to control; format: functional
KM12 = assay: Cytotoxicity against human KM12 cells after 48 hrs by SRB assay; format: functional; settings: KM12, 48 h
LOX IMVI = assay: Cytotoxicity against human LOXIMVI cells assessed as cellular growth at 100 uM after 48 hrs by SRB assay relative to control; format: functional
786-0 = assay: Cytotoxicity against human 786-0 cells assessed as cellular growth at 0.1 uM after 48 hrs by SRB assay relative to control; format: functional
MDA-MB-435 = assay: Cytotoxicity against human MDA-MB-435 cells assessed as cellular growth at 1 uM after 48 hrs by SRB assay relative to control; format: functional
DU-145 = assay: Cytotoxicity against human DU145 cells assessed as cellular growth at 100 uM after 48 hrs by SRB assay relative to control; format: functional
PC-3 [3] = assay: Cytotoxicity against human PC3 cells assessed as cellular growth at 0.1 uM after 48 hrs by SRB assay relative to control; format: functional
U-251 [4] = assay: Cytotoxicity against human U251 cells after 48 hrs by SRB assay; format: functional; settings: U-251, 48 h
MDA-MB-468 = assay: Cytotoxicity against human MDA-MB-468 cells assessed as cellular growth at 1 uM after 48 hrs by SRB assay relative to control; format: functional
UACC-257 = assay: Cytotoxicity against human UACC257 cells after 48 hrs by SRB assay; format: functional; settings: UACC-257, 48 h
MCF7 = assay: Cytotoxicity against human MCF7 cells assessed as cellular growth at 1 uM after 48 hrs by SRB assay relative to control; format: functional
A549 = assay: Cytotoxicity against human A549 cells assessed as cellular growth at 0.1 uM after 48 hrs by SRB assay relative to control; format: functional
OVCAR-5 [5] = assay: Cytotoxicity against human OVCAR5 cells assessed as cellular growth at 0.1 uM after 48 hrs by SRB assay relative to control; format: functional
HCT-15 [6] = assay: Cytotoxicity against human HCT15 cells after 48 hrs by SRB assay; format: functional; settings: HCT-15, 48 h
HCT-15 [7] = assay: Cytotoxicity against human HCT15 cells assessed as cellular growth at 100 uM after 48 hrs by SRB assay relative to control; format: functional
SF-539 = assay: Cytotoxicity against human SF539 cells assessed as cellular growth at 1 uM after 48 hrs by SRB assay relative to control; format: functional
HL-60(TB) = assay: Cytotoxicity against human HL-60(TB) cells after 48 hrs by SRB assay; format: functional; settings: HL-60, 48 h
OVCAR-4 = assay: Cytotoxicity against human OVCAR4 cells assessed as cellular growth at 1 uM after 48 hrs by SRB assay relative to control; format: functional
OVCAR-5 [8] = assay: Cytotoxicity against human OVCAR5 cells assessed as cellular growth at 100 uM after 48 hrs by SRB assay relative to control; format: functional
[9] = Cytotoxicity against human non-small cell lung cancer cells assessed as cellular growth at 10 uM after 48 hrs by SRB assay relative to control; format: functional, Cancer cell lines
[10] = Cytotoxicity against human ovarian cancer cells assessed as cellular growth at 10 uM after 48 hrs by SRB assay relative to control; format: functional, Cancer cell lines
MOLT-4 [11] = assay: Cytotoxicity against human MOLT4 cells after 48 hrs by SRB assay; format: functional; settings: MOLT-4, 48 h
HCC 2998 = assay: Cytotoxicity against human HCC2998 cells assessed as cellular growth at 0.1 uM after 48 hrs by SRB assay relative to control; format: functional
RPMI-8226 = assay: Cytotoxicity against human RPMI8226 cells assessed as cellular growth at 100 uM after 48 hrs by SRB assay relative to control; format: functional
MOLT-4 [12] = assay: Cytotoxicity against human MOLT4 cells assessed as cellular growth at 1 uM after 48 hrs by SRB assay relative to control; format: functional
[13] = read-out: LC50 (the source's name)
[14] = read-out: pLC50 (the source's name) (converted)

O=C(CCCn1c2c(sc3ccccc32)c(=O)n2nnc(-c3ccccc3)c12)NCCc1c[nH]cn1
Activity (HOP-92): 95%
GI50 (NCI-H322M; read-out: GI50): 2.75 µM
CC50 (NCI-H322M; [13]): 39.2 µM
TGI (NCI-H322M; read-out: TGI): 9.8 µM
GI50 (NCI-H322M; read-out: pGI50 (converted)): 2.75 µM
CC50 (NCI-H322M; [14]): 38.9 µM
TGI (NCI-H322M; read-out: pTGI (converted)): 9.77 µM
Activity (HT-29): 43%
GI50 (SF-268; read-out: GI50): 1.54 µM
CC50 (SF-268; [13]): 6.7 µM
TGI (SF-268; read-out: TGI): 3.21 µM
GI50 (SF-268; read-out: pGI50 (converted)): 1.55 µM
CC50 (SF-268; [14]): 6.76 µM
TGI (SF-268; read-out: pTGI (converted)): 3.24 µM
GI50 (PC-3 [1]; read-out: GI50): 0.0603 µM
LC50 (PC-3 [1]; read-out: LC50): 7.32 µM
TGI (PC-3 [1]; read-out: TGI): 2.21 µM
GI50 (PC-3 [1]; read-out: pGI50 (converted)): 0.0603 µM
LC50 (PC-3 [1]; read-out: pLC50 (converted)): 7.24 µM
TGI (PC-3 [1]; read-out: pTGI (converted)): 2.19 µM
Activity (Mus musculus): Non-toxic
Activity (U-251 [2]): 54%
Activity (Hs-578T): 70%
Activity (OVCAR-3): -100%
Activity (ACHN): -100%
GI50 (KM12; read-out: GI50): 0.336 µM
CC50 (KM12; [13]): 4.88 µM
TGI (KM12; read-out: TGI): 2.01 µM
GI50 (KM12; read-out: pGI50 (converted)): 0.339 µM
CC50 (KM12; [14]): 4.9 µM
TGI (KM12; read-out: pTGI (converted)): 2 µM
Activity (LOX IMVI): -100%
Activity (786-0): 62%
Activity (MDA-MB-435): 34%
Activity (DU-145): -100%
Activity (PC-3 [3]): 40%
GI50 (U-251 [4]; read-out: GI50): 0.165 µM
CC50 (U-251 [4]; [13]): 4.3 µM
TGI (U-251 [4]; read-out: TGI): 1.85 µM
GI50 (U-251 [4]; read-out: pGI50 (converted)): 0.166 µM
CC50 (U-251 [4]; [14]): 4.27 µM
TGI (U-251 [4]; read-out: pTGI (converted)): 1.86 µM
Activity (MDA-MB-468): 8%
GI50 (UACC-257; read-out: GI50): 2.14 µM
CC50 (UACC-257; [13]): 7.83 µM
TGI (UACC-257; read-out: TGI): 4.09 µM
GI50 (UACC-257; read-out: pGI50 (converted)): 2.14 µM
CC50 (UACC-257; [14]): 7.76 µM
TGI (UACC-257; read-out: pTGI (converted)): 4.07 µM
Activity (MCF7): 58%
Activity (A549): 99%
Activity (OVCAR-5 [5]): 36%
GI50 (HCT-15 [6]; read-out: GI50): 0.372 µM
CC50 (HCT-15 [6]; [13]): 5.74 µM
TGI (HCT-15 [6]; read-out: TGI): 1.9 µM
GI50 (HCT-15 [6]; read-out: pGI50 (converted)): 0.372 µM
CC50 (HCT-15 [6]; [14]): 5.75 µM
TGI (HCT-15 [6]; read-out: pTGI (converted)): 1.91 µM
Activity (HCT-15 [7]): -100%
Activity (SF-539): -6%
GI50 (HL-60(TB); read-out: GI50): 0.0724 µM
CC50 (HL-60(TB); [13]): 22.7 µM
TGI (HL-60(TB); read-out: TGI): 3.21 µM
GI50 (HL-60(TB); read-out: pGI50 (converted)): 0.0724 µM
CC50 (HL-60(TB); [14]): 22.9 µM
TGI (HL-60(TB); read-out: pTGI (converted)): 3.24 µM
Activity (OVCAR-4): 91%
Activity (OVCAR-5 [8]): -80%

O=C(O)CCCn1c2c(sc3ccccc32)c(=O)n2nnc(-c3ccccc3)c12
Activity [9]: 85%
Activity [10]: 105%

CN1CCN(CCCn2c3c(sc4ncccc43)c(=O)n3nnc(-c4ccccc4)c23)CC1
Activity (HOP-92): 92%
GI50 (NCI-H322M; read-out: GI50): 1.74 µM
CC50 (NCI-H322M; [13]): 6.96 µM
TGI (NCI-H322M; read-out: TGI): 3.48 µM
GI50 (NCI-H322M; read-out: pGI50 (converted)): 1.74 µM
CC50 (NCI-H322M; [14]): 6.92 µM
TGI (NCI-H322M; read-out: pTGI (converted)): 3.47 µM
GI50 (MOLT-4 [11]; read-out: GI50): 1.98 µM
CC50 (MOLT-4 [11]; [13]): 11.5 µM
TGI (MOLT-4 [11]; read-out: TGI): 4.45 µM
GI50 (MOLT-4 [11]; read-out: pGI50 (converted)): 2 µM
CC50 (MOLT-4 [11]; [14]): 11.5 µM
TGI (MOLT-4 [11]; read-out: pTGI (converted)): 4.47 µM
GI50 (SF-268; read-out: GI50): 1.61 µM
CC50 (SF-268; [13]): 6.81 µM
TGI (SF-268; read-out: TGI): 3.31 µM
GI50 (SF-268; read-out: pGI50 (converted)): 1.62 µM
CC50 (SF-268; [14]): 6.76 µM
TGI (SF-268; read-out: pTGI (converted)): 3.31 µM
Activity (HCC 2998): 99%
Activity (U-251 [2]): 100%
Activity (Hs-578T): 96%
Activity (OVCAR-3): -84%
Activity (ACHN): -80%
GI50 (KM12; read-out: GI50): 1.73 µM
CC50 (KM12; [13]): 6.71 µM
TGI (KM12; read-out: TGI): 3.41 µM
GI50 (KM12; read-out: pGI50 (converted)): 1.74 µM
CC50 (KM12; [14]): 6.76 µM
TGI (KM12; read-out: pTGI (converted)): 3.39 µM
Activity (LOX IMVI): -46%
Activity (786-0): 100%
Activity (MDA-MB-435): 99%
Activity (DU-145): -88%
GI50 (U-251 [4]; read-out: GI50): 1.82 µM
TGI (U-251 [4]; read-out: TGI): 3.43 µM
GI50 (U-251 [4]; read-out: pGI50 (converted)): 1.82 µM
TGI (U-251 [4]; read-out: pTGI (converted)): 3.47 µM
Activity (MDA-MB-468): 101%
GI50 (UACC-257; read-out: GI50): 1.81 µM
CC50 (UACC-257; [13]): 6.3 µM
TGI (UACC-257; read-out: TGI): 3.37 µM
GI50 (UACC-257; read-out: pGI50 (converted)): 1.82 µM
CC50 (UACC-257; [14]): 6.31 µM
TGI (UACC-257; read-out: pTGI (converted)): 3.39 µM
Activity (MCF7): 82%
Activity (A549): 95%
Activity (OVCAR-5 [5]): 102%
GI50 (HCT-15 [6]; read-out: GI50): 1.82 µM
CC50 (HCT-15 [6]; [13]): 8.26 µM
TGI (HCT-15 [6]; read-out: TGI): 3.88 µM
GI50 (HCT-15 [6]; read-out: pGI50 (converted)): 1.82 µM
CC50 (HCT-15 [6]; [14]): 8.32 µM
TGI (HCT-15 [6]; read-out: pTGI (converted)): 3.89 µM
Activity (HCT-15 [7]): -69%
Activity (SF-539): 90%
GI50 (HL-60(TB); read-out: GI50): 1.86 µM
CC50 (HL-60(TB); [13]): 9.05 µM
TGI (HL-60(TB); read-out: TGI): 4.1 µM
GI50 (HL-60(TB); read-out: pGI50 (converted)): 1.86 µM
CC50 (HL-60(TB); [14]): 9.12 µM
TGI (HL-60(TB); read-out: pTGI (converted)): 4.07 µM
Activity (OVCAR-4): 93%
Activity (OVCAR-5 [8]): -44%
Activity (RPMI-8226): -46%
Activity (MOLT-4 [12]): 92%
